Results published in PubChem BioAssay (NCI).
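How tested: cells in 96-well plates exposed to compound for 48 hours at five concentrations. TGI marks complete inhibition of growth.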

How the values were obtained:
Test in all cases: NCI tumour cell line growth inhibition, 48 h
OVCAR-3 ovarian = tested on: OVCAR-3 ovarian
HCT-116 colon = tested on: HCT-116 colon
MCF7 breast = tested on: MCF7 breast
MALME-3M melanoma = tested on: MALME-3M melanoma
COLO 205 colon = tested on: COLO 205 colon
SF-295 CNS = tested on: SF-295 CNS
OVCAR-4 ovarian = tested on: OVCAR-4 ovarian
EKVX NSCLC = tested on: EKVX NSCLC
ACHN renal = tested on: ACHN renal
UACC-62 melanoma = tested on: UACC-62 melanoma
MDA-MB-231 breast = tested on: MDA-MB-231 breast
SNB-19 CNS = tested on: SNB-19 CNS
HOP-92 NSCLC = tested on: HOP-92 NSCLC
SN12C renal = tested on: SN12C renal
UACC-257 melanoma = tested on: UACC-257 melanoma
SNB-75 CNS = tested on: SNB-75 CNS
DU-145 prostate = tested on: DU-145 prostate
NCI-H226 lung = tested on: NCI-H226 lung
KM12 colon = tested on: KM12 colon
NCI-H23 lung = tested on: NCI-H23 lung
SW-620 colon = tested on: SW-620 colon
RPMI-8226 leukemia = tested on: RPMI-8226 leukemia
NCI/ADR-RES ovarian = tested on: NCI/ADR-RES ovarian
A549 NSCLC = tested on: A549 NSCLC
HS 578T breast = tested on: HS 578T breast
U251 CNS = tested on: U251 CNS
CCRF-CEM leukemia = tested on: CCRF-CEM leukemia
786-0 renal = tested on: 786-0 renal
LOX IMVI melanoma = tested on: LOX IMVI melanoma
SF-268 CNS = tested on: SF-268 CNS
MDA-MB-435 = tested on: MDA-MB-435
BT-549 breast = tested on: BT-549 breast
HT29 colon = tested on: HT29 colon
PC-3 prostate = tested on: PC-3 prostate
K-562 leukemia = tested on: K-562 leukemia
SK-OV-3 ovarian = tested on: SK-OV-3 ovarian
MOLT-4 leukemia = tested on: MOLT-4 leukemia
SF-539 CNS = tested on: SF-539 CNS
SK-MEL-2 melanoma = tested on: SK-MEL-2 melanoma
HOP-62 NSCLC = tested on: HOP-62 NSCLC
IGROV1 ovarian = tested on: IGROV1 ovarian
CAKI-1 renal = tested on: CAKI-1 renal
MDA-N = tested on: MDA-N
M14 melanoma = tested on: M14 melanoma
SK-MEL-28 melanoma = tested on: SK-MEL-28 melanoma
OVCAR-8 ovarian = tested on: OVCAR-8 ovarian
RXF 393 renal = tested on: RXF 393 renal
OVCAR-5 ovarian = tested on: OVCAR-5 ovarian
HCC-2998 colon = tested on: HCC-2998 colon
UO-31 renal = tested on: UO-31 renal
TK-10 renal = tested on: TK-10 renal
HCT-15 colon = tested on: HCT-15 colon
T-47D breast = tested on: T-47D breast
SR leukemia = tested on: SR leukemia
HL-60(TB) leukemia = tested on: HL-60(TB) leukemia
NCI-H522 lung = tested on: NCI-H522 lung
SK-MEL-5 melanoma = tested on: SK-MEL-5 melanoma
A498 renal = tested on: A498 renal
NCI-H460 lung = tested on: NCI-H460 lung

c1ccc(C2SCc3nc4cc5ccccc5cc4n32)cc1 (centres undefined)
TGI (OVCAR-3 ovarian): > 100 µM | TGI (HCT-116 colon): > 100 µM | TGI (MCF7 breast): > 100 µM | TGI (MALME-3M melanoma): > 100 µM | TGI (COLO 205 colon): > 100 µM | TGI (SF-295 CNS): > 100 µM | TGI (OVCAR-4 ovarian): > 100 µM | TGI (EKVX NSCLC): > 100 µM | TGI (ACHN renal): > 100 µM | TGI (UACC-62 melanoma): > 100 µM | TGI (MDA-MB-231 breast): > 100 µM | TGI (SNB-19 CNS): > 100 µM | TGI (HOP-92 NSCLC): > 100 µM | TGI (SN12C renal): > 100 µM | TGI (UACC-257 melanoma): > 100 µM | TGI (SNB-75 CNS): > 100 µM | TGI (DU-145 prostate): > 100 µM | TGI (NCI-H226 lung): > 100 µM | TGI (KM12 colon): > 100 µM | TGI (NCI-H23 lung): > 100 µM | TGI (SW-620 colon): > 100 µM | TGI (RPMI-8226 leukemia): > 100 µM | TGI (NCI/ADR-RES ovarian): > 100 µM | TGI (A549 NSCLC): > 100 µM | TGI (HS 578T breast): > 100 µM | TGI (U251 CNS): > 100 µM | TGI (CCRF-CEM leukemia): > 100 µM | TGI (786-0 renal): > 100 µM | TGI (LOX IMVI melanoma): > 100 µM | TGI (SF-268 CNS): > 100 µM | TGI (MDA-MB-435): > 100 µM | TGI (BT-549 breast): > 100 µM | TGI (HT29 colon): > 100 µM | TGI (PC-3 prostate): > 100 µM | TGI (K-562 leukemia): > 100 µM | TGI (SK-OV-3 ovarian): > 100 µM | TGI (MOLT-4 leukemia): > 100 µM | TGI (SF-539 CNS): > 100 µM | TGI (SK-MEL-2 melanoma): > 100 µM | TGI (HOP-62 NSCLC): > 100 µM | TGI (IGROV1 ovarian): > 100 µM | TGI (CAKI-1 renal): > 100 µM | TGI (MDA-N): > 100 µM | TGI (M14 melanoma): > 100 µM | TGI (SK-MEL-28 melanoma): > 100 µM | TGI (OVCAR-8 ovarian): > 100 µM | TGI (RXF 393 renal): > 100 µM | TGI (OVCAR-5 ovarian): > 100 µM | TGI (HCC-2998 colon): > 100 µM | TGI (UO-31 renal): > 100 µM | TGI (TK-10 renal): > 100 µM | TGI (HCT-15 colon): > 100 µM | TGI (T-47D breast): > 100 µM | TGI (SR leukemia): > 100 µM

COC(=O)[C@H]1C[C@H]1NC(=O)C(CC(=O)OCc1ccccc1)NC(=O)OCc1ccccc1 (some centres undefined)
TGI (HCT-116 colon): > 100 µM | TGI (MCF7 breast): > 100 µM | TGI (COLO 205 colon): 43.2 µM | TGI (SF-295 CNS): > 100 µM | TGI (EKVX NSCLC): > 100 µM | TGI (HL-60(TB) leukemia): 39.6 µM | TGI (ACHN renal): > 100 µM | TGI (MDA-MB-231 breast): > 100 µM | TGI (SNB-19 CNS): > 100 µM | TGI (SN12C renal): > 100 µM | TGI (UACC-257 melanoma): > 100 µM | TGI (SNB-75 CNS): > 100 µM | TGI (DU-145 prostate): > 100 µM | TGI (NCI-H226 lung): > 100 µM | TGI (KM12 colon): 77.1 µM | TGI (NCI-H522 lung): > 100 µM | TGI (NCI-H23 lung): > 100 µM | TGI (SW-620 colon): > 100 µM | TGI (RPMI-8226 leukemia): 50.2 µM | TGI (NCI/ADR-RES ovarian): 91.5 µM | TGI (A549 NSCLC): > 100 µM | TGI (HS 578T breast): > 100 µM | TGI (U251 CNS): > 100 µM | TGI (CCRF-CEM leukemia): > 100 µM | TGI (786-0 renal): > 100 µM | TGI (LOX IMVI melanoma): > 100 µM | TGI (SF-268 CNS): > 100 µM | TGI (MDA-MB-435): 69.8 µM | TGI (SK-MEL-5 melanoma): 55.9 µM | TGI (BT-549 breast): 55.9 µM | TGI (HT29 colon): > 100 µM | TGI (PC-3 prostate): > 100 µM | TGI (K-562 leukemia): > 100 µM | TGI (SK-OV-3 ovarian): > 100 µM | TGI (MOLT-4 leukemia): > 100 µM | TGI (SF-539 CNS): > 100 µM | TGI (SK-MEL-2 melanoma): 56.9 µM | TGI (A498 renal): > 100 µM | TGI (IGROV1 ovarian): > 100 µM | TGI (MDA-N): > 100 µM | TGI (M14 melanoma): 52.1 µM | TGI (SK-MEL-28 melanoma): > 100 µM | TGI (OVCAR-8 ovarian): > 100 µM | TGI (OVCAR-5 ovarian): > 100 µM | TGI (HCC-2998 colon): > 100 µM | TGI (NCI-H460 lung): 72.4 µM | TGI (TK-10 renal): > 100 µM | TGI (HCT-15 colon): > 100 µM | TGI (T-47D breast): 98.4 µM | TGI (SR leukemia): > 100 µM
